# Assay results from US20230218559A1, “Compositions and Methods for Treating Aging and Age-Related Diseases and Symptoms” (The Regents of the University of California, priority 2014, published 2023).
# Key:
# ATP synthase = molecular target: T1, ATP synthase (Mus musculus, UniProt P56480); experiment: ATP synthase enzyme inhibition kinetics; format: biochemical
# T1 construct: Mitochondria were isolated from mouse liver as described above; from tissue; host or cells: isolated mouse liver mitochondria
# Protocol: ATP synthesis enzyme inhibition kinetic analysis was performed using isolated mitochondria. Mitochondria were isolated from mouse liver as described above. The final mitochondrial pellet was resuspended in MAS buffer supplemented with 5 mM sodium ascorbate (Sigma, A7631) and 5 mM TMPD (Sigma, T7394).
# ATP synthesis was monitored by the increase in luminescence over time by a luminometer (Analyst HT, Molecular Devices). ATP synthase-independent ATP formation, derived from the oligomycin-insensitive luminescence, was subtracted as background. The initial velocity of ATP synthesis was calculated from the slope of the first 3 minutes of the reaction, before the velocity begins to decrease. Enzyme inhibition kinetics was analyzed by nonlinear regression least squares fit using GraphPad Prism.
# Complex V = molecular target: T2, Complex V (Bos taurus, UniProt P00829); experiment: Complex V activity assay (MitoTox OXPHOS kit); format: biochemical, bovine
# T2 construct: from bovine heart mitochondria; purchased Abcam ab109907; host or cells: bovine heart mitochondria
# Protocol: Complex V activity was assayed using the MitoTox OXPHOS Complex V Activity Kit (Abcam, ab109907). Vehicle (H2O) or α-KG was mixed with the enzyme prior to the addition of phospholipids. […] Relative Complex V activity was compared to vehicle. Oligomycin (Sigma, O4876) was used as a positive control for the assay.
# WI-38 cells = experiment: Assay for ATP levels in normal human fibroblasts; format: cell-based; settings: 2 hours
# Protocol: Normal human diploid fibroblast WI-38 (ATCC, CCL-75) cells were seeded in 96-well plates at 2×10^4 cells per well. […] ATP levels were measured using the CellTiter-Glo luminescent ATP assay (Promega, G7572); luminescence was read using Analyst HT (Molecular Devices). In parallel, identically treated cells were lysed in M-PER (Thermo Scientific, 78501) to obtain protein concentration by BCA Protein Assay kit (Pierce, 23223). ATP levels were normalized to protein content. Statistical analysis was performed using GraphPad Prism (unpaired t-test).
# [1] = test system: neonatal rat cardiomyocytes; experiment: Isoproterenol/phenylephrine-induced hypertrophy in isolated neonatal cardiomyocytes; format: cell-based; settings: 200 μM
# Protocol: Cardiomyocytes of neonatal rats were isolated by collagenase digestion and cultured overnight in DMEM containing 10% fetal calf serum (FCS), and then culture medium was changed to serum-free high glucose insulin-transferrin-sodium selenite (ITS). Hypertrophy of cardiomyocytes was induced by treating the cells with 1 mM isoproterenol (ISO) or phenylephrine (PE) for 48 hours.
# mTOR [2] = experiment: Assay for mammalian TOR (mTOR) pathway activity; format: cell-based, human; settings: U87 cells
# From the text: Specific antibodies used: P-S6K T389 (Cell Signaling Technology, 9234), S6K (Cell Signaling Technology, 9202S), P-4E-BP1 S65 (Cell Signaling Technology, 9451S), 4E-BP1 (Cell Signaling Technology, 9452S), P-AKT S473 (Cell Signaling Technology, 4060S), AKT (Cell Signaling Technology, 4691S), P-ULK1 S757 (Cell Signaling Technology, 6888), ULK1 (Cell Signaling Technology, 4773S), and GAPDH (Santa Cruz Biotechnology, 25778).
# DBA2/J female mice = experiment: Isoproterenol-induced hypertrophy and heart failure in mice; format: in vivo, mouse; settings: ISO plus octyl α-KG, 3 weeks, echocardiography; ISO+octanol 49.2%±1.9
# Protocol: Hypertrophy and heart failure were induced by chronic infusion of isoproterenol for 3 weeks at a dose of 30 μg per gram bodyweight per day using osmotic mini-pumps (Alzet, model 1004). DBA2/J female mice at 8 weeks old were used for this study. […] ISO-induced cardiac hypertrophy and cardiomyopathy were determined at the end of experiment by assessing heart size and heart to body weight ratio.
# More importantly, cardiac output was assessed and the cardiac ejection fractions were determined by echocardiography. The cardiac EF for the basal levels before the treatment is 55.1%±2.6 (n=14).
# [3] = molecular target: mitochondrial ATP synthase (Complex V) (Mus musculus, UniProt P56480); experiment: Mice fed octyl α-KG in chow; heart mitochondria OCR
# Protocol: The mice were sacrificed, hearts harvested, and mitochondria isolated. The oxygen consumption rate (OCR) was measured using a Seahorse XF-24 Analyzer (Seahorse Bioscience).
# mammalian cells = experiment: Oxygen consumption rate in cells (Seahorse XF-24); format: cell-based; settings: treated cells, 1 hour
# Protocol: OCR measurements were made using a Seahorse XF-24 analyzer (Seahorse Bioscience) (Wu, et al. Am J Physiol Cell Physiol 292, C125-136 (2007)). […] Oxygen consumption rates were measured 3 times under basal conditions and normalized to protein concentration per well. Statistical analysis was performed using GraphPad Prism.
# U87 cells [4] = experiment: Cell growth and viability assays in U87 cells; format: cell-based, human
# Protocol: IDH1(R132H) mutant or IDH1(WT) expressing U87 cells were as reported (Li, et al. Neuro Oncol 15, 57-68). […] All the cells were cultured at 37° C. and 5% CO2. Cells were transfected with indicated siRNA using Thermo Scientific DharmaFECT Transfection Reagent 1 by following the manufacturer's instructions.
# Cells were seeded in 12-well plates and after overnight incubation were treated with indicated concentrations of each compound. After harvesting, cells were stained by Acridine Orange (AO) and DAPI. Cell number and viability were measured based on AO and DAPI fluorescence measured by NC3000 (Chemometec) following the manufacturer's instructions.
# U87 cells [5] = experiment: Assay for ATP levels in U87 cells; format: cell-based, human; settings: mitochondrial oxidative phosphorylation conditions, 2 hours
# Protocol: For 2-HG experiments, U87 cells were seeded in 96-well plates at 2×10^4 cells per well and treated with indicated compound for 2 hours in triplicate. ATP levels were measured using the CellTiter-Glo luminescent ATP assay (Promega, G7572); luminescence was read using Analyst HT (Molecular Devices). […] Statistical analysis was performed using GraphPad Prism (unpaired t-test).
# AMPK = AMPK (T172) phosphorylation by Western blotting; format: cell-based, human; settings: WI-38 cells; higher concentration of octyl α-KG
# Protocol: Western blotting was performed with specific antibodies against P-AMPK T172 (Cell Signaling Technology, 2535S) and AMPK (Cell Signaling Technology, 2603S). […] Number of GFP::LGG-1 containing puncta was quantitated using ImageJ. Bars indicate the mean. […] HEK-293 (Panel d) or HeLa (Panel e) cells were lysed in M-PER buffer (Thermo Scientific, 78501) with the addition of protease inhibitors (Roche, 11836153001) and phosphatase inhibitors (50 mM NaF, 10 mM β-glycerophosphate, 5 mM sodium pyrophosphate, 2 mM Na3VO4). Protein concentration of the lysate was measured by BCA Protein Assay kit (Pierce, 23227). […] Pronase (Roche, 10165921001) digestions were performed for 20 minutes at room temperature, and stopped by adding SDS loading buffer and immediately heating at 95° C. for 5 minutes (for Panel d) or 70° C. for 10 minutes (for Panel e). Samples were subjected to SDS-PAGE on 4-12% Bis-Tris gradient gel (Invitrogen, NP0322BOX) and Western blotted with specific antibodies against ATP5B (Santa Cruz, sc58618), mTOR (Cell Signaling Technology, 2972), or GAPDH (Ambion, AM4300). ImageJ was used to quantify the mTOR/GAPDH and ATP5B/GAPDH ratios.
# C. elegans [6] = experiment: Oxygen consumption rate in living C. elegans; format: in vivo, Caenorhabditis elegans; settings: worms, 8 mM, day 2 of adulthood
# Protocol: OCR was assessed on day 2 of adulthood. […] Oxygen consumption rates were measured 7 times under basal conditions and normalized to the number of worms counted per well. The experiment was repeated twice. Statistical analysis was performed using Microsoft Excel (t-test, two-tailed, two-sample unequal variance).
# C. elegans [7] = experiment: Assay for ATP levels in C. elegans; format: in vivo, Caenorhabditis elegans; settings: 8 mM; day 2, P=0.969; day 8, P=0.012
# Protocol: Assay for ATP levels in C. elegans. […] ATP levels were normalized to number of worms. Statistical analysis was performed using Microsoft Excel (t-test, two-tailed, two-sample unequal variance).
# ATP-2 = molecular target: T3, ATP-2 (Caenorhabditis elegans, UniProt P46561); experiment: DARTS using C. elegans lysate; format: binding; settings: worm lysate
# T3 construct: from tissue; host or cells: lysate of whole wild-type C. elegans
# T3 sequence (P46561 whole entry): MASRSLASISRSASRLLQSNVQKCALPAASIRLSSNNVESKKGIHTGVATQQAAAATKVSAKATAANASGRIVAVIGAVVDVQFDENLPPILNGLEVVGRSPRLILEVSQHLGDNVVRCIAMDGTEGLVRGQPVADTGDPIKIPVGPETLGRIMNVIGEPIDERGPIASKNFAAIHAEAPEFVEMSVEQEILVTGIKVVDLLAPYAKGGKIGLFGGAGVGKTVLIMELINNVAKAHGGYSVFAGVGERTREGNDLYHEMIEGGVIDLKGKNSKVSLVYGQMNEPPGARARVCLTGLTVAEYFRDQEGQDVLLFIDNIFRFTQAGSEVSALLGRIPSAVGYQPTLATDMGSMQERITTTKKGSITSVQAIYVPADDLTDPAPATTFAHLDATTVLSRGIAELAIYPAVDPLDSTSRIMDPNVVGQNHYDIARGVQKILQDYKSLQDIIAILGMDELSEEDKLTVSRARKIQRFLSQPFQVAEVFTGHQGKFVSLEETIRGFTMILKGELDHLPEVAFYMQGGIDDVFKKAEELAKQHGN
# Protocol: For DARTS using C. elegans (FIG. 6, Panel a), wild-type animals of various ages were grown on NGM/OP50 plates, washed 4 times with M9 buffer, and immediately placed in the −80° C. freezer. […] All steps were performed on ice or at 4° C. to help prevent premature protein degradation. TNC buffer (50 mM Tris-HCl pH 8.0, 50 mM NaCl, 10 mM CaCl2) was added to the worm lysates.
# lactate dehydrogenase = experiment: Coupling-enzyme control of SMP ATPase assay; format: biochemical; settings: up to 10 mM, external ADP added
# Protocol: (§1) The SMP ATPase activity was assayed using the Complex V Activity Buffer as above. The production of ADP is coupled to the oxidation of NADH to NAD^+ through pyruvate kinase and lactate dehydrogenase. […] The absorbance decrease of NADH at 340 nm correlates to ATPase activity.
# pyruvate kinase = experiment: Coupling-enzyme control of SMP ATPase assay; format: biochemical; settings: up to 10 mM, external ADP added
# Protocol: as §1
# Complex IV = test system: T4, Complex IV; experiment: Complex IV activity assay (MitoTox OXPHOS kit); format: biochemical, bovine; settings: relative to vehicle (H2O)
# T4 construct: from bovine heart mitochondria; purchased Abcam ab109906; host or cells: bovine heart mitochondria
# Protocol: Complex IV activity was assayed using the MitoTox OXPHOS Complex IV Activity Kit (Abcam, ab109906).
# ATP5B = molecular target: T5, ATP5B (Homo sapiens, UniProt P06576); experiment: DARTS (drug affinity responsive target stability) with Western blotting; format: binding; settings: human cell lysates, Pronase digestion
# T5 construct: HeLa cells were lysed in M-PER buffer; endogenous in cells; host or cells: HeLa (alpha-KG); U87 (2-HG)
# T5 sequence (P06576 48-529): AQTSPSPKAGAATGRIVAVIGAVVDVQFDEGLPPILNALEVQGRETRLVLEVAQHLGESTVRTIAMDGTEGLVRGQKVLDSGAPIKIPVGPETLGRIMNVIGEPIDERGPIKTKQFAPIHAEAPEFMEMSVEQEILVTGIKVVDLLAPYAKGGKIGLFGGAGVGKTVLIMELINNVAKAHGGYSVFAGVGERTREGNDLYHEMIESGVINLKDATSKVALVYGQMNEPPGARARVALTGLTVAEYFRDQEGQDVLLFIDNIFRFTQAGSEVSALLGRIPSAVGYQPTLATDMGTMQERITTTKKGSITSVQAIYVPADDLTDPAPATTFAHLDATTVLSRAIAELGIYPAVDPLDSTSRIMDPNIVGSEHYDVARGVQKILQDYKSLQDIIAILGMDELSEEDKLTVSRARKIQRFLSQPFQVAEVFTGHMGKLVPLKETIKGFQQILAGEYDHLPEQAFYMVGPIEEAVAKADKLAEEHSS
# Protocol: Target identification using DARTS was conducted in accordance with methods know in the art. […] The resulting digests were separated by SDS-PAGE and visualized using SYPRO Ruby Protein Gel Stain (Invitrogen, S12000).
# GAPDH (Ambion, AM4300) was used as a negative control.
# For 2-HG experiments, DARTS was performed as described above.
# mTOR [8] = molecular target: T6, mTOR (Homo sapiens, UniProt P42345); experiment: DARTS for TOR in HEK-293 / HeLa lysates; format: binding; settings: HEK-293 or HeLa lysates
# T6 construct: HEK-293 (Panel d) or HeLa (Panel e) cells were lysed in M-PER buffer; endogenous in cells; host or cells: HEK-293; HeLa
# From the text: Number of GFP::LGG-1 containing puncta was quantitated using ImageJ. Bars indicate the mean. […] ImageJ was used to quantify the mTOR/GAPDH and ATP5B/GAPDH ratios.
smiles,measurement,setting,value
"CCCCCCCCOC(=O)C(=O)CCC(=O)O [octyl α-KG, octyl α-ketoglutarate]",apparent Vmax of ATP synthase,"ATP synthase; 200 μM octyl α-KG, octanol vehicle 53.9",26.7
same,mode of ATP synthase inhibition,ATP synthase; α-KG released from octyl α-KG,uncompetitive inhibition
same,reversibility of ATP synthase inhibition,"Complex V; α-KG released from octyl α-KG, not shown",reversible
same,ATP levels,WI-38 cells,reduced
same,ISO- and PE-induced overexpression of ANF and BNP,[1],suppressed
same,ISO-induced hypertrophy,"[1]; 1 mM isoproterenol, 48 hours",completely abolished
same,phosphorylation of S6K (T389),mTOR [2],decreased
same,phosphorylation of mTOR substrates,mTOR [2],decreased
same,cardiac ejection fraction,DBA2/J female mice,53.8%±2.3
same,state 3 respiration of heart mitochondria,"[3]; mice fed 1.5 mg/g body weight in chow for one week, versus octanol control mice",lower
same,physiological or behavioral abnormality,"[3]; mice, 1.5 mg/g body weight in chow, after 5 days feeding",no abnormality
same,oxygen consumption rates,mammalian cells,Decreased
same,viability upon glucose starvation,U87 cells [4]; 400 μM and 800 μM,decreased
same,growth rate,"U87 cells [4]; glucose medium, to a lesser extent, not shown",reduced
same,growth rate,"U87 cells [4]; glucose-free medium, 400 μM and 800 μM",decreased growth rate
same,ATP content,U87 cells [5],decreased
same,P-AMPK (T172),AMPK,increased
"O=C(O)CCC(=O)C(=O)O [α-KG, α-ketoglutarate]",oxygen consumption rates,C. elegans [6],Decreased
same,activity of Complex V,Complex V; bovine heart mitochondria,inhibits
same,ATP levels,C. elegans [7],reduced
same,ATP-2 protein protection from Pronase digestion,ATP-2,protection
same,activity of lactate dehydrogenase,lactate dehydrogenase,did not affect
same,activity of pyruvate kinase,pyruvate kinase,did not affect
same,Complex IV activity,Complex IV,does not affect
same,binding to ATP5B by DARTS,ATP5B,binding specifically
same,binding to TOR by DARTS,mTOR [8],does not bind
